Here are results for 6 molecules from ChEMBL document CHEMBL1155188, “Sesquiterpenoids from Pilea cavaleriei subsp. crenata” (Bioorg Med Chem Lett, 2009).

Usually IC50 stands for the point on the concentration scale where inhibition reaches its midpoint. What is called MIC is the least concentration at which growth counts as inhibited.

Test [1] deals with K562. Put plainly: Cytotoxicity against human K562 cells after 48 hrs by MTT assay. The format is functional, cell-based. A general note: Formazan colour is commonly taken as a measure of viable cells.
The subject of test [2] is SGC-7901. Put plainly: Cytotoxicity against human SGC7901 cells after 48 hrs by MTT assay. In kind it is functional, cell-based.
A short description of test [3]: Cytotoxicity against human AGZY cells after 48 hrs by MTT assay. The format is functional, cell-based.
Test [4] is described as follows: Cytotoxicity against human BIU87 cells after 48 hrs by MTT assay. In kind it is functional, cell-based.
Test [5] concerns EJ. Put plainly: Cytotoxicity against human EJ cells after 48 hrs by MTT assay. The format is functional, cell-based.
The test system of test [6] is SK-OV-3. Nature of the test: Cytotoxicity against human SKOV3 cells after 48 hrs by MTT assay. In kind it is functional, cell-based.
A short description of test [7]: Cytotoxicity against human GLC82 cells after 48 hrs by MTT assay. In kind it is functional, cell-based.
Test [8] has as its system Escherichia coli. Nature of the test: Antibacterial activity against Escherichia coli by microdilution assay. The format is functional, organism-based.
The test system of test [9] is Staphylococcus aureus. Nature of the test: Antibacterial activity against Staphylococcus aureus by microdilution assay. In kind it is functional. Background: In broth dilution the organism is exposed to a series of concentrations in liquid medium.
Test [10] relates to A549. Put plainly: Cytotoxicity against human A549 cells by SRB assay. In kind it is functional, cell-based. For orientation: The SRB assay estimates cell density from bound dye.
Test [11] deals with MCF7. Put plainly: Cytotoxicity against human MCF7 cells after 48 hrs by MTT assay. The format is functional, cell-based. As to conditions: MCF7, 48 h.
Setting [12] is: Homo sapiens, K562, 48 h, read-out: IC50.

Values after ≈ are worked out from the molar mass of the structure shown. Active and inactive are the calls of the source. The calls are words filed in the database; no cut-off is given here.

For `CC(C)[C@@H]1CC[C@]2(C)[C@H]3CC[C@]2(C)[C@H](OC(=O)/C=C/c2ccc(O)cc2)[C@@H]13`, the IC50 was 41.7 µg/mL (≈ 113 µM) in test [1] (setting [12]); “Not Active” in test [2] (sgc-7901); “Not Active” in test [3] (agzy); “Not Active” in test [4]; “Not Active” in test [5]; “Not Active” in test [6]. Further, the IC50 entry in [7] is given as “Not Active”.

Regarding `C=C1CC/C=C(\C)C[C@H](OC(=O)/C=C/c2ccc(O)c([N+](=O)[O-])c2)CC(C)(C)C[C@@H]1O`, the IC50 result in test [1] (k562), in test [2] (sgc-7901), in [3] (agzy), in test [4], in [5] and in [6] was “Not Active” each time. Further, the half-inhibitory concentration (IC50) entry in [7] is recorded as “Not Active”.

Turning to GENTAMICIN, the minimal inhibitory concentration (MIC) in test [8] and in test [9] was 0.05 µg/mL each time.

Consider `O=c1[nH]cc(F)c(=O)[nH]1` [FLUOROURACIL], for which, in [10], half-maximal inhibition (IC50) required 2 µg/mL (≈ 15.4 µM).

As for `C=C1CC/C=C(\C)C[C@H](OC(=O)/C=C/c2ccc(O)cc2)CC(C)(C)C[C@@H]1OO`, the IC50 was 57.4 µg/mL (≈ 143 µM) in [1] (setting [12]); “Not Active” in test [2] (sgc-7901); “Not Active” in test [3] (agzy); “Not Active” in test [4]; “Not Active” in [5]; “Not Active” in test [6]. In addition, the figures for the 50% inhibitory concentration (IC50) result in [7], in test [10] and in test [11] were “Not Active”, 33.4 µg/mL (≈ 83.3 µM) and 23.4 µg/mL (≈ 58.4 µM), respectively. In addition, in test [8], the MIC entry was “inactive”. The minimal inhibitory concentration (MIC) in test [9] turned out to be 45 µg/mL (≈ 112 µM).

Turning to `C/C1=C\CC(C)(C)C[C@@H](OC(=O)/C=C/c2ccc(O)cc2)C/C(C)=C/CC1`, the IC50 was 12 µg/mL (≈ 32.6 µM) in [1] (setting [12]); 49.4 µg/mL (≈ 134 µM) in [2] (Homo sapiens, SGC-7901, 48 h, read-out: IC50); 27.8 µg/mL (≈ 75.5 µM) in test [3] (Homo sapiens, AGZY, 48 h, read-out: IC50); “Not Active” in test [4]; “Not Active” in test [5]; “Not Active” in test [6]. The values for the concentration for half-maximal inhibition (IC50) entry in [7], in [10] and in [11] were “Not Active”, 25.6 µg/mL (≈ 69.5 µM) and 40.5 µg/mL (≈ 110 µM), respectively. The MIC result in test [8] and in [9] was “inactive” throughout.
